From the NIST ThermoML archive (doi:10.1016/j.jct.2004.09.021)

How the values were obtained:
[1] = xn = mol fraction of the nth substance listed; conditions: 101 kPa, Liquid
[2] = refractive index (Na D-line) (dimensionless); xn = mol fraction of the nth substance listed; conditions: 101 kPa, Liquid

COc1ccccc1 [anisole] + CCCCCCCC
Conditions	mass density, 293.15 K [kg/m3]	mass density, 298.15 K [kg/m3]	mass density, 303.15 K [kg/m3]	refractive index, 293.15 K	refractive index, 298.15 K	refractive index, 303.15 K	viscosity, 293.15 K [mPa·s]	viscosity, 298.15 K [mPa·s]	viscosity, 303.15 K [mPa·s]
[1], x1 = 0.1031	722.82	718.75	714.63	–	–	–	0.5523	0.5195	0.4917
[1], x1 = 0.2253	749.02	744.78	740.6	–	–	–	0.568	0.5349	0.5042
[1], x1 = 0.3001	766.32	762.01	757.77	–	–	–	0.5825	0.5446	0.5166
[1], x1 = 0.4	791.02	786.68	782.37	–	–	–	0.6136	0.5719	0.5434
[1], x1 = 0.5092	820.49	816.09	811.7	–	–	–	0.6541	0.6157	0.5779
[1], x1 = 0.5998	847.08	842.65	838.17	–	–	–	0.7026	0.6542	0.6162
[1], x1 = 0.6977	878.22	873.72	869.19	–	–	–	0.7639	0.7153	0.6729
[1], x1 = 0.7998	913.74	909.15	904.54	–	–	–	0.8456	0.7845	0.7453
[1], x1 = 0.8975	950.96	946.32	941.63	–	–	–	0.9497	0.8917	0.8289
[1], x1 = 1	993.81	989.15	984.42	–	–	–	1.085	1.017	0.9285
[2], x1 = 0.106	–	–	–	1.405	1.4029	1.4004	–	–	–
[2], x1 = 0.231	–	–	–	1.4158	1.4136	1.4114	–	–	–
[2], x1 = 0.307	–	–	–	1.423	1.4208	1.4187	–	–	–
[2], x1 = 0.3991	–	–	–	1.4324	1.4303	1.4283	–	–	–
[2], x1 = 0.503	–	–	–	1.444	1.4419	1.44	–	–	–
[2], x1 = 0.6	–	–	–	1.4562	1.454	1.4522	–	–	–
[2], x1 = 0.69	–	–	–	1.4683	1.4661	1.4643	–	–	–
[2], x1 = 0.796	–	–	–	1.4838	1.4815	1.4797	–	–	–
[2], x1 = 0.8822	–	–	–	1.4973	1.495	1.4933	–	–	–
[2], x1 = 1	–	–	–	1.5161	1.5141	1.5129	–	–	–

CCCCCC [hexane] + COc1ccccc1
x2 = 0
Conditions	mass density, 293.15 K [kg/m3]	mass density, 298.15 K [kg/m3]	mass density, 303.15 K [kg/m3]	refractive index, 293.15 K	refractive index, 298.15 K	refractive index, 303.15 K	viscosity, 293.15 K [mPa·s]	viscosity, 298.15 K [mPa·s]	viscosity, 303.15 K [mPa·s]
[1]	659.5	654.96	650.42	–	–	–	0.3114	0.2974	0.2838
[2]	–	–	–	1.3759	1.3732	1.3709	–	–	–

COc1ccccc1 [anisole] + CCCCCCC
Conditions	mass density, 293.15 K [kg/m3]	mass density, 298.15 K [kg/m3]	mass density, 303.15 K [kg/m3]	refractive index, 293.15 K	refractive index, 298.15 K	refractive index, 303.15 K	viscosity, 293.15 K [mPa·s]	viscosity, 298.15 K [mPa·s]	viscosity, 303.15 K [mPa·s]
[1], x1 = 0.1002	707.25	702.96	698.59	–	–	–	0.4315	0.4121	0.3918
[1], x1 = 0.2002	731.96	727.61	723.18	–	–	–	0.4541	0.434	0.4135
[1], x1 = 0.2987	757.78	753.37	748.88	–	–	–	0.4775	0.4581	0.4356
[1], x1 = 0.3994	785.83	781.36	776.8	–	–	–	0.5184	0.4896	0.4639
[1], x1 = 0.4996	815.43	810.9	806.29	–	–	–	0.5675	0.5347	0.5064
[1], x1 = 0.5958	845.62	841.04	836.39	–	–	–	0.6285	0.5911	0.5603
[1], x1 = 0.6993	880.28	875.65	870.94	–	–	–	0.7129	0.6692	0.6322
[1], x1 = 0.7981	915.67	911.07	906.4	–	–	–	0.8105	0.7613	0.7161
[1], x1 = 0.8991	953.76	949.15	944.46	–	–	–	0.9337	0.8767	0.8197
[1], x1 = 1	993.81	989.15	984.42	–	–	–	1.085	1.017	0.9285
[2], x1 = 0.1007	–	–	–	1.3975	1.3954	1.3924	–	–	–
[2], x1 = 0.21	–	–	–	1.4087	1.4064	1.4036	–	–	–
[2], x1 = 0.31	–	–	–	1.4189	1.4167	1.414	–	–	–
[2], x1 = 0.405	–	–	–	1.4294	1.4272	1.4248	–	–	–
[2], x1 = 0.4985	–	–	–	1.4407	1.4385	1.4362	–	–	–
[2], x1 = 0.583	–	–	–	1.4516	1.4495	1.4474	–	–	–
[2], x1 = 0.6989	–	–	–	1.4683	1.466	1.464	–	–	–
[2], x1 = 0.792	–	–	–	1.4826	1.4802	1.4782	–	–	–
[2], x1 = 0.8941	–	–	–	1.499	1.4966	1.4947	–	–	–
[2], x1 = 1	–	–	–	1.5161	1.5141	1.5129	–	–	–
